Results on one molecule are retold here after patent publication US20260309717A1, “PROXIMITY INDUCING SYSTEM AND USES THEREOF” (SORBONNE UNIVERSITE, priority 2022, published 2026).

Type in all cases: cell-based
Test [1] has as its target T1, ^FIREmate and ^FIREtag (fused to FRB and FKBP) (Halorhodospira halophila, UniProt P16113, A30V/C69G/D97P/F96I, form not given/G21E/G25R/K17N/M100R/M109L/Q41L/Q99S/S72T/T101G/V83A/Y94W/Y98T).
T1 sequence (P16113 1-114 A30V/C69G/D97P/F96I/G21E/G25R/K17N/M100R/M109L/Q41L/Q99S/S72T/T101G/V83A/Y94W/Y98T): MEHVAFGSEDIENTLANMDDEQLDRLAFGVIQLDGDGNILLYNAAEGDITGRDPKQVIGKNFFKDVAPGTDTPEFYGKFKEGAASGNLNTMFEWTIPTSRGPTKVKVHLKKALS
As to the kind of experiment: Flow cytometry of fluorescent ternary assembly formation in HEK293T cells co-expressing FKBP-^FIREtag and FRB-^FIREmate. The protocol: FIGS. 2A and 2B are graphs illustrating the fluorogen-dependent interaction between the two polypeptides ^FIREmate and ^FIREtag. The graphs show the normalized average fluorescence detected from about 50,000 HEK293T cells co-expressing the FK506-binding protein (FKBP) fused to ^FIREtag and the FKBP-rapamycin-binding domain of mammalian target of rapamycin (FRB) fused to ^FIREmate treated without (triangles) or with (squares) 500 nM of rapamycin, and with 1, 5, 10, 25 or 50 μM of HBR-2,5DM (2A) or HMBR (2B). Data represent the mean values±SD of three independent experiments.
The formation of a fluorescent ternary assembly was assessed by flow cytometry in HEK293 cells expressing ^FIREmate and ^FIREtag fused to the C-termini of FKBP (FK506-binding protein) and FRB (FKBP-rapamycin-binding domain of mammalian target of rapamycin), […]. FKBP and FRB are able to dimerize upon addition of rapamycin. Treatment of the HEK293 cells with rapamycin is thus expected to induce the dimerization of FKBP and FRB, and subsequently to induce proximity between ^FIREtag and ^FIREmate.

The target of test [2] is T2, mCherry-caged^FIREtag / ^FIREmate-ECFP-Giantin (Halorhodospira halophila, UniProt P16113, A30V/C69G/D97P/F96I, form not given/G21E/G25R/K17N/M100R/M109L/Q41L/Q99S/S72T/T101G/V83A/Y94W/Y98T).
T2 construct: mCherry-caged FIREtag (PYP 2-114 C69G cage) and FIREmate-ECFP-Giantin in HeLa cells
T2 sequence (P16113 1-114 A30V/C69G/D97P/F96I/G21E/G25R/K17N/M100R/M109L/Q41L/Q99S/S72T/T101G/V83A/Y94W/Y98T): T1 sequence (P16113 1-114 A30V/C69G/D97P/F96I/G21E/G25R/K17N/M100R/M109L/Q41L/Q99S/S72T/T101G/V83A/Y94W/Y98T)
As to the kind of experiment: Recruitment of mCherry-caged^FIREtag to the Golgi, confocal microscopy, HeLa cells. Particulars: 10 μM. The protocol: FIGS. 11A-C illustrate the use of a caged proximity inducing system as described herein. FIG. 11A is a representation of the experimental design wherein HeLa cells co-expressing mCherry-caged^FIREtag and ^FIREmate-ECFP-Giantin were treated with 10 μM of match (i.e., HBR-2,5DM), and imaged by time-lapse confocal microscopy. FIG. 11B is a graph showing the temporal evolution of the FIRE signal detected upon addition of HBR-2,5DM at 0 min, either with ^FIREtag or with caged^FIREtag. Data represents the mean values±SD of 7 cells from n=3 independent experiments. FIG. 11C is a set of representative confocal micrographs of cells before (0 min) and after (9 min) addition of HBR-2,5DM (match1) (mCherry: ex/em 561/606-675 nm; FIRE: ex/em 488/508-570 nm; ECFP: ex/em 445/455-499 nm). […] Scale bars are 20 μm.
(§1) The confocal micrographs were acquired on a Zeiss LSM 980 Laser Scanning Microscope equipped with a plan apochromat 63x/1.4 NA oil immersion objective. […] The images were analyzed using Icy (2.4.0.0) and Fiji (Image J). In short, to track fluorescence signal in a specific organelle, a ROI (region of interest) was determined by masking the signal in the ECFP (Enhanced Cyan Fluorescent Protein) channel with the plug-in HK-means with the following parameters: intensity class equals 100, minimum object size (pixels or px) equals 500, maximum object size (px) equals 1500-3000. […]

The target of test [3] is T3, NLS-mCherry-^FIREmate / NES-ECFP-^FIREtag (Halorhodospira halophila, UniProt P16113, A30V/C69G/D97P/F96I, form not given/G21E/G25R/K17N/M100R/M109L/Q41L/Q99S/S72T/T101G/V83A/Y94W/Y98T).
T3 construct: NLS-mCherry-FIREmate and NES-ECFP-FIREtag in HeLa cells
T3 sequence (P16113 1-114 A30V/C69G/D97P/F96I/G21E/G25R/K17N/M100R/M109L/Q41L/Q99S/S72T/T101G/V83A/Y94W/Y98T): T1 sequence (P16113 1-114 A30V/C69G/D97P/F96I/G21E/G25R/K17N/M100R/M109L/Q41L/Q99S/S72T/T101G/V83A/Y94W/Y98T)
As to the kind of experiment: Nuclear export of proteins (nucleocytoplasmic trafficking), confocal microscopy, HeLa cells. The following applies: 10 μM, 4 min. The protocol:
FIGS. 13A-D illustrate the nuclear export of proteins mediated by the proximity inducing system described herein. FIG. 13A is a representation of the experimental design wherein HeLa cell co-expressing NLS-mCherry-FIR_^FIREmate and NES-ECFP-^FIREtag were treated with 10 μM of match (i.e., HBR-2,5DM) and imaged by time-lapse confocal microscopy. FIG. 13B is a graph showing the temporal evolution of the ratio nucleus-to-cytoplasm mCherry fluorescence intensities of n=5 cells from 2 independent experiments. FIG. 13C is a graph showing the temporal evolution of the FIRE signal detected upon addition of HBR-2,5DM at 0 min of n=5 cells from 2 independent experiments. […]
as §1

Structures are written as SMILES.

On to `Cc1cc(/C=C2\SC(=S)NC2=O)c(C)cc1O` [HBR-2,5DM, (Z)-5-(4-hydroxy-2,5-dimethylbenzylidene)-2-thioxo-1,3-thiazolidin-4-one], for which, in test [1] (absence of rapamycin), the “dimerization of FKBP and FRB (induced proximity)” value is “able to induce the dimerization of FKBP and FRB”. In addition, the “formation of a ternary fluorescent assembly” value in test [1] (fluorogen 1, 5, 10, 25 or 50 μM, HEK293 cells) was “induced the formation of a ternary fluorescent assembly at all tested fluorogen concentrations”. In addition, the “dependence of ternary fluorescent assembly formation on rapamycin (initial proximity)” value in test [1] (with or without 500 nM rapamycin, fluorogen 1-50 μM) is on record as “regardless of the presence or absence of rapamycin”. In test [2], the “kinetics of ternary assembly formation with caged^FIREtag, compared to ^FIREtag” value was “slower kinetics”. Further, in test [2] (9 min), the “recruitment of mCherry-caged^FIREtag to the Golgi” value was “efficient recruitment of mCherry-caged^FIREtag to the Golgi”. In addition, in test [3], the “FIRE signal in the cytoplasm” value is “strong cytoplasmic green fluorescence” and the “cytoplasmic localization of the formed protein complex (nuclear export of NLS-mCherry-^FIREmate)” value is “efficient cytoplasmic localization of the formed protein complex”.
